According to patent publication US20250179045A1, “LPAR1 ANTAGONISTS AND USES THEREOF” (Contineum Therapeutics, Inc., priority 2021, published 2025):

Target: human LPA1 (Homo sapiens, UniProt Q92633)
Assay: In vitro functional assay of lysophosphatidic acid receptor 1 activity (calcium flux)
Format: cell-based
Settings: B103 cells stably expressing human LPA1; Fluo-4 NW calcium flux after lysophosphatidic acid (18:1) at EC80; compounds 100 pM to 10 μM; read-out: LPA1 IC50
Description: In vitro functional assay of lysophosphatidic acid receptor 1 activity
Primary compound plates were prepared in 100% DMSO (Sigma-Aldrich), secondary compound plates were prepared at 10× concentration in DiVEM (Invitrogen), and tertiary compound plates were prepared at 3x concentration in assay buffer containing HBSS (no Ca^+2/Mg^+2, Invitrogen) and 0.1% BSA (Sigma-Aldrich). Fluo-4 NW calcium assay dye (Invitrogen) was prepared as per manufacturer's recommendations in assay buffer. B103 cells stably expressing human LPA1(J. Chun lab, UCSD) were grown to confluency in DMEM media (Invitrogen) containing 10% FBS (ATCC), […] (Sigma-Aldrich) and […] Geneticin (Sigma-Aldrich), and detached with Accutase (Sigma-Aldrich) prior to assay. The freshly detached cells were resuspended in growth media and plated in black, clear-bottom 96-well plates (Costar) containing compound (i.e., secondary compound plate) at a density of 5×10^4 cells/well. Once plated, cells were left at room temperature for 30 minutes and then transferred to a 37° C., […] incubator for 24 hours. After 24 hours, the growth media was then removed and freshly prepared Fluo-4 NW calcium assay dye was added to cells. Compounds (i.e. tertiary compound plates) were then added back to the dye/cells, returned to the incubator for 30 minutes, and then kept at room temperature for an additional 30 minutes. Finally, lysophosphatidic acid (18:1) at the EC80 concentration was added and calcium flux measured using FlexStation 3 (Molecular Devices). Sigmoidal dose-response curves were generated by measuring […] over 45 sec and calculating the area under the curve. Dose response curves and IC50 values were generated using Prism (GraphPad). Compounds were tested at a final concentration range of 100 pM to 10 μM in 0.10% DMSO.

human LPA1, sequence (Q92633 whole entry): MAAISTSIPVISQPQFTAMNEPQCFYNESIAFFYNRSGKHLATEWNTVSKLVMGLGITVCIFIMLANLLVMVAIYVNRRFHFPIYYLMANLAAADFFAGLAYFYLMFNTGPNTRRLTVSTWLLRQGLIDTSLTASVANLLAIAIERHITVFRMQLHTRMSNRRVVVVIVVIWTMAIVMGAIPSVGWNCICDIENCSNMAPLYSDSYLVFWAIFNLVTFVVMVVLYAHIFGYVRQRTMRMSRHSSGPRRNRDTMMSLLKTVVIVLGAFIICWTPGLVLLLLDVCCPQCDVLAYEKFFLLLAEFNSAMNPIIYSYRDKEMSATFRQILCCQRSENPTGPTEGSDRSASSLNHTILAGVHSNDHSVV

Row | IC50 [nM] | Structure (SMILES)
1 | > 1000 | COc1cc(C)ncc1NC(=O)C1(c2ccccc2C(C)C)COC1 [Example 36, 3-(2-isopropylphenyl)-N-(4-methoxy-6-methylpyridin-3-yl)oxetane-3-carboxamide]
2 | 10 to 100 | COc1ccc(NC(=O)C2(c3ccccc3C(C)C)CCC(C#N)CC2)c(OC(F)F)n1 (mixture of isomers) [Example 95, 4-cyano-N-(2-(difluoromethoxy)-6-methoxypyridin-3-yl)-1-(2-isopropylphenyl)cyclohexane-1-carboxamide]
3 | 100 to 1000 | Cc1ccc(NC(=O)C2(c3ccccc3C(C)C)CC(N(C)S(C)(=O)=O)C2)c(OC(F)F)n1 (stereo not drawn) [Example 44, N-(2-(difluoromethoxy)-6-methylpyridin-3-yl)-1-(2-isopropylphenyl)-3-(N-methylmethylsulfonamido)cyclobutane-1-carboxamide]
4 | 10 to 100 | Cc1ccc(NC(=O)C2(c3ncccc3C(C)C)CC(O)C2)c(OC(F)F)n1 (mixture of isomers) [Example 57, N-(2-(difluoromethoxy)-6-methylpyridin-3-yl)-3-hydroxy-1-(3-isopropylpyridin-2-yl)cyclobutane-1-carboxamide]
5 | 10 to 100 | COc1ccc(NC(=O)C2(c3ccccc3C(C)C)CC(O)(C(F)(F)C(=O)O)C2)c(OC(F)F)n1 (single isomer, unassigned) [Example 54-isomer B, 2-(3-((2-(difluoromethoxy)-6-methoxypyridin-3-yl)carbamoyl)-1-hydroxy-3-(2-isopropylphenyl)cyclobutyl)-2,2-difluoroacetic acid]
6 | 10 to 100 | CNS(=O)(=O)C1CC(C(=O)Nc2ccc(C)nc2OC(F)F)(c2ccccc2C(C)C)C1 (stereo not drawn) [Example 70, N-(2-(difluoromethoxy)-6-methylpyridin-3-yl)-1-(2-isopropylphenyl)-3-(N-methylsulfamoyl)cyclobutane-1-carboxamide]
7 | 100 to 1000 | CC(C)c1ccccc1C1(C(=O)Nc2ccc(Cl)cn2)CC(O)(C(F)(F)C(=O)O)C1 (single isomer, unassigned) [Example 93-isomer B, 2-(3-((5-chloropyridin-2-y1)carbamoyl)-1-hydroxy-3-(2-isopropylphenyl)cyclobutyl)-2,2-difluoroacetic acid]
8 | 100 to 1000 | COc1ccc(NC(=O)C2(c3ccccc3C(C)C)CCC(S(N)(=O)=O)CC2)c(OC(F)F)n1 (stereo not drawn) [Example 97, N-(2-(difluoromethoxy)-6-methoxypyridin-3-yl)-1-(2-isopropylphenyl)-4-sulfamoylcyclohexane-1-carboxamide]
9 | 10 to 100 | COc1cc(Cl)ncc1NC(=O)C1(c2ccccc2C(C)C)CC(O)(C(F)(F)C(=O)O)C1 (stereo not drawn) [Example 56, 2-(3-((6-chloro-4-methoxypyridin-3-yl)carbamoyl)-1-hydroxy-3-(2-isopropylphenyl)cyclobutyl)-2,2-difluoroacetic acid]
10 | 100 to 1000 | COc1ccc(NC(=O)C2(c3ccccc3C(C)C)CCC3(CC2)OCCO3)c(OC(F)F)n1 [Example 79, N-(2-(difluoromethoxy)-6-methoxypyridin-3-yl)-8-(2-isopropylphenyl)-1,4-dioxaspiro[4.5]decane-8-carboxamide]
11 | 10 to 100 | Cc1ccc(NC(=O)C2(c3ccccc3C(C)C)COC2)c(OC(F)F)n1 [Example 17, N-(2-(difluoromethoxy)-6-methylpyridin-3-yl)-3-(2-isopropylphenyl)oxetane-3-carboxamide]
12 | 10 to 100 | CC(C)c1ccccc1C1(C(=O)Nc2ncc(Cl)cc2OC(F)F)CC(O)(C(F)(F)C(=O)O)C1 (single isomer, unassigned) [Example 55-isomer A, 2-(3-((5-chloro-3-(difluoromethoxy)pyridin-2-yl)carbamoyl)-1-hydroxy-3-(2-isopropylphenyl)cyclobutyl)-2,2-difluoroacetic acid]
13 | 10 to 100 | Cc1ccc(NC(=O)C2(c3ccccc3C(C)C)CC(S(N)(=O)=O)C2)c(OC(F)F)n1 (mixture of isomers) [Example 69, N-(2-(difluoromethoxy)-6-methylpyridin-3-yl)-1-(2-isopropylphenyl)-3-sulfamoylcyclobutane-1-carboxamide]
14 | 100 to 1000 | COc1cc(OC(F)F)c(NC(=O)C2(c3ccccc3C(C)C)COC2)cn1 [Example 25, N-(4-(difluoromethoxy)-6-methoxypyridin-3-yl)-3-(2-isopropylphenyl)oxetane-3-carboxamide]
15 | 10 to 100 | Cc1ccc(NC(=O)C2(c3ccccc3C(C)C)CC(CCO)C2)c(OC(F)F)n1 (mixture of isomers) [Example 49, N-(2-(difluoromethoxy)-6-methylpyridin-3-yl)-3-(2-hydroxyethyl)-1-(2-isopropylphenyl)cyclobutane-1-carboxamide]
16 | 10 to 100 | Cc1ccc(NC(=O)C2(c3ccccc3C(C)C)CCOCC2)c(OC(F)F)n1 [Example 13, N-(2-(difluoromethoxy)-6-methylpyridin-3-yl)-4-(2-isopropylphenyl)tetrahydro-2H-pyran-4-carboxamide]
17 | 10 to 100 | COc1ccc(NC(=O)C2(c3ccccc3C(C)C)CCC(C)(O)CC2)c(OC(F)F)n1 (single isomer, unassigned) [Example 83-isomer B, N-(2-(difluoromethoxy)-6-methoxypyridin-3-yl)-4-hydroxy-1-(2-isopropylphenyl)-4-methylcyclohexane-1-carboxamide]
18 | 100 to 1000 | CC(C)c1ccccc1C1(C(=O)Nc2cccnc2OC(F)F)CC(=O)N(C)C1 (stereo not drawn) [Example 2, N-(2-(difluoromethoxy)pyridin-3-yl)-3-(2-isopropylphenyl)-1-methyl-5-oxopyrrolidine-3-carboxamide]
19 | > 1000 | Cc1ccc(NC(=O)C2(c3ccccc3C(C)C)CCC2)c(OC(F)F)n1 [Example 73, N-(2-(difluoromethoxy)-6-methylpyridin-3-yl)-1-(2-isopropylphenyl)cyclobutane-1-carboxamide]
20 | 10 to 100 | Cc1ccc(NC(=O)C2(c3ccccc3C(C)C)CC(=O)N(C)C2)c(OC(F)F)c1 (stereo not drawn) [Example 110, N-(2-(difluoromethoxy)-4-methylphenyl)-3-(2-isopropylphenyl)-1-methyl-5-oxopyrrolidine-3-carboxamide]
21 | 10 to 100 | Cc1ccc(NC(=O)C2(c3ccccc3C(C)C)CC(Cn3ccnn3)C2)c(OC(F)F)n1 (stereo not drawn) [Example 72, 3-((1H-1,2,3-triazol-1-yl)methyl)-N-(2-(difluoromethoxy)-6-methylpyridin-3-yl)-1-(2-isopropylphenyl)cyclobutane-1-carboxamide]
22 | 10 to 100 | Cc1ccc(NC(=O)C2(c3ccccc3C(C)C)CC(N3CCC3=O)C2)c(OC(F)F)n1 (mixture of isomers) [Example 68, N-(2-(difluoromethoxy)-6-methylpyridin-3-yl)-1-(2-isopropylphenyl)-3-(2-oxoazetidin-1-yl)cyclobutane-1-carboxamide]
23 | 100 to 1000 | CNS(=O)(=O)C1CCC(C(=O)Nc2ccc(OC)nc2OC(F)F)(c2ccccc2C(C)C)CC1 (stereo not drawn) [Example 99, N-(2-(difluoromethoxy)-6-methoxypyridin-3-yl)-1-(2-isopropylphenyl)-4-(N-methylsulfamoyl)cyclohexane-1-carboxamide]
24 | 100 to 1000 | COc1ccc(NC(=O)C2(c3ccccc3C(C)C)COC2)c(OC)n1 [Example 18, N-(2,6-dimethoxypyridin-3-yl)-3-(2-isopropylphenyl)oxetane-3-carboxamide]
